Measurements published in a melting point compilation (Tetko et al.).

melting point	Structure (SMILES)
246 to 248 °C	O=C1c2ccc(C(Br)Br)c([N+](=O)[O-])c2C(=O)c2c(Cl)c(Cl)c(Cl)c(Cl)c21
62 °C	O=Cc1ccc(F)cc1Cl
36 to 38 °C	S=C=NCC(c1ccccc1)c1ccccc1
214 to 215 °C	COc1ccc(/C=N/c2ccc(-c3ccc(/N=N/c4ccccc4)cc3)cc2)cc1
189 °C	NS(=O)(=O)c1cc(Cl)c(Cl)cc1Cl
-20 °C	CN(C)c1ccccc1[N+](=O)[O-]
81 to 83 °C	Cc1nsc(-c2ccc(Cl)cc2)n1
-43 °C	CCCCCCCS
186 to 188 °C	CC(=O)Nc1ccc(Br)c(C(=O)O)c1
168 to 170 °C	CC1(C)c2ccccc2NC1C(N)=O (stereo unspecified)
130 °C	NNC(=O)C(O)c1ccccc1 (stereo unspecified)
167 to 169 °C	Cc1oc(C)c(S(=O)(=O)NCc2cccs2)c1C(=O)O
126 °C	N#CCN(CC#N)CC#N
117 °C	CCCCc1ccc(NC(=O)c2ccc(CC)cc2)cc1
116 °C	COc1ccc(N(CCCC(=O)O)C(=O)c2ccc(Cl)cc2)cc1
48 to 50 °C	CC(C)(C)c1cc(C(F)(F)F)nc(N)n1
138 to 142 °C	O=S1(=O)C=Cc2ccccc21
225 to 226 °C	CC(C)N1CSc2nnc(-c3ccccc3)n2C1
179 °C	CN1N=C(C(F)(F)F)CC1=O
216 to 218 °C	NNC(=O)C(N)=O
32 to 36 °C	CC(C)[C@@H](N)CO
360 °C	O=C1C(=C2C=Cc3ccccc3N2)C(=O)c2c1cccc2[N+](=O)[O-]
-1 °C	CCC=C(c1ccccc1)c1ccccc1

melting point	Structure (SMILES)
20.5 °C	CCCCCCCCCCCCCC(=O)OCc1ccccc1
56 °C	Nc1c(Cl)cc(F)cc1Cl
199 °C	Nc1cc2ccccc2cc1N
144 to 146 °C	CCOC(=O)c1c(C)sc(Sc2ccccc2[N+](=O)[O-])c1O
146 °C	O=C(CCCN1CC=C(n2c(=O)[nH]c3ccccc32)CC1)c1ccc(F)cc1
315 °C	Cc1ccc(NC(=O)C=Cc2ccc(C=CC(=O)Nc3ccc(C)cc3)cc2)cc1
102 to 104 °C	CCNC(=S)Nc1ccccc1
-1.1 °C	CC(C)OC(=O)CCCCC(=O)OC(C)C
157 to 158 °C	CC(C)(C)c1cc(CC(=O)O)cc(C(C)(C)C)c1O
116 to 118 °C	Cn1c(C(F)(F)F)n[nH]c1=S
200 to 202 °C	CSc1nc(N)c(C(=O)c2ccc([N+](=O)[O-])cc2)s1
213 °C	CC12CCC(O)CC1CCC1C2C(=O)CC2(C)C1CCC2(O)C(=O)CO (stereo unspecified)
148 °C	c1ccc2[nH]ncc2c1
164 °C	O=C(O)c1ccc(Oc2ccccc2)nc1
-60 °C	CCCCC(CC)CNCC(CC)CCCC (stereo unspecified)
129 °C	Cc1ccc(C(=O)CCC(=O)O)cc1
64 to 69 °C	Cc1cc(CS)c(CS)cc1C
26 °C	Cc1cc(C(=O)Cl)ccc1Br
-8 °C	C=CC(=O)N1CCOCC1
210 °C	CC12CCC(C(CCC3C(=O)C4(C)CCC3C4(C)C)C1=O)C2(C)C (stereo unspecified)
104 °C	Cc1n[nH]c(C)c1C(C)(C)C
108 to 109 °C	O=Cc1ccc(-c2ncccn2)cc1
69 °C	FC(F)(F)c1ccc2[nH]ccc2c1

melting point	Structure (SMILES)
127 to 129 °C	O=C(O)c1cccc(N2CCOCC2)n1
20 °C	Oc1ccc(Cl)cc1F
40 to 42 °C	N#Cc1ccc(OC(F)F)cc1
175 to 178 °C	CC1(C)C=C(C(=O)ON2C(=O)CCC2=O)C(C)(C)N1O
112 to 118 °C	Cc1cc2cc(Cl)ccc2[nH]1
122 to 129 °C	Cc1ccc(S(=O)(=O)OCC2CCC(=O)N2)cc1 (stereo unspecified)
226 °C	CC(=O)Nc1ccc(C(=O)O)cc1[N+](=O)[O-]
179 °C	Cc1ccc(NN=c2c(C)nc3ccccc3[nH]c2=O)cc1
240 °C	Cc1cc(C(=O)O)cc(O)n1
198 to 201 °C	O=C(O)c1ccc(-c2ccc(Cl)cc2)o1
337 °C	N#Cc1c2ccccc2c(C#N)c2ccccc12
162 to 164 °C	NC(=O)C(Cc1ccccc1)NC(=O)OCc1ccccc1 (stereo unspecified)
139 to 140 °C	C[C@]12CCC(=O)C[C@H]1CC[C@@H]1[C@@H]2CC[C@]2(C)CCC[C@@]12O
263 °C	NC(=O)/C(=C\c1ccc(Cl)cc1Cl)c1nc2ccccc2s1
260 °C	N#CC1=C(N)n2nc(C(F)(F)F)nc2NC1c1ccco1 (stereo unspecified)
81 °C	COc1cc(C(C)=O)cc(OC)c1OC
124 °C	O=C(c1cccs1)c1noc(-c2cccc3ccccc23)c1S(=O)(=O)c1ccccc1
59 °C	CN1C(=O)COc2ccccc21
32 °C	Cc1cc(O)ccc1F
213 to 215 °C	CSc1nc2cc(N=Cc3ccc4c(c3)OCO4)ccc2[nH]1
71 to 74 °C	O=S(=O)(Cl)c1ccc(-c2nsc(Cl)n2)s1
144 °C	CC(=O)OC[C@H]1O[C@@H](OC(C)=O)[C@H](OC(C)=O)[C@@H](OC(C)=O)[C@H]1OC(C)=O
242 to 250 °C	O=C1Nc2ccc(Cl)cc2C1=O

melting point	Structure (SMILES)
241 °C	O=C(c1nn2c(nc(=O)c3ccccc32)s1)c1cccc2ccccc12
120 to 122 °C	Cc1cc(C(=O)CC#N)c(C)o1
107 °C	Cc1c(I)ccnc1Cl
92 °C	Cc1c[nH]c(C)n1
180 °C	CCOC(=O)c1nn(-c2ccc(C)cc2)c(C)c1C(=O)c1noc(-c2ccc(C)cc2)c1S(=O)(=O)c1ccccc1
45 to 50 °C	O=C1NC2CCCC12 (stereo unspecified)
178 to 179 °C	Cc1ccc(Cc2c(N)nn3c(C)cc(C)nc23)cc1
176 °C	Cc1cc(N)ccc1O
116 °C	CN(C)CCN1C(=O)c2ccccc2N(C)c2ccccc21
135 to 136 °C	NC(=S)c1ncc(C(F)(F)F)cc1Cl
152 °C	Cn1ccc(=O)c2ccccc21
231 to 232 °C	C/C(=N\c1ccc(O)c(C)c1)c1c(O)c2ccccc2n(-c2ccccc2)c1=O
194 °C	COc1ccccc1C1(C)CCc2oc3c(Br)cc(Br)cc3c2-c2oc(C)cc21 (stereo unspecified)
110 °C	COC(=O)c1ccc(-c2ccccc2)nc1
316 to 317 °C	O=C(O)c1ccc(-c2cncnc2)cc1
60 °C	CCOCCOC(=O)C(C)Oc1ccc(Oc2ncc(C(F)(F)F)cc2Cl)cc1 (stereo unspecified)
-53 °C	C1CCC2CCCC2C1 (stereo unspecified)
-7 °C	C=C(C)CCCCCCCCCCCCC
160 °C	O=Cc1cc(O)cc(O)c1
114 °C	OC(CCN1CCCCC1)(c1ccccc1)C1CC2C=CC1C2 (stereo unspecified)
146 °C	O=C(c1ccccc1)c1ccccc1C(=O)c1ccccc1
178 °C	CC(=O)C=Cc1oc2ccc([N+](=O)[O-])cc2c1-c1ccc(C)o1
164 °C	CCc1cc(C(N)=S)ccn1

melting point	Structure (SMILES)
270 °C	N#C/C(=N\Nc1ccccc1[N+](=O)[O-])c1nc2ccccc2[nH]1
146 °C	CCOC(=O)N1COCc2c1ccc1cc3ccc(NC)c(CO)c3nc21
96 to 100 °C	O=C(O)C(c1ccccc1)C1CCCC1 (stereo unspecified)
148 °C	CC(C)NCC1CCc2cc(CO)c([N+](=O)[O-])cc2N1 (stereo unspecified)
146 °C	OC(C1=CC(=C(c2ccccn2)c2ccccn2)C=C1)(c1ccccn1)c1ccccn1
147 °C	O=Cc1cc(F)c(O)cc1F
136 °C	Cc1cccc(N/N=C2/C(=O)N(c3ccccc3)N=C2C(F)(F)F)c1C
124 °C	NC(=O)c1cccc(C(F)(F)F)c1
102 to 104 °C	C(=Nc1ccccc1Nc1ccccc1N=Cc1ccccc1)c1ccccc1
180 °C	CC(C)(NC(=O)C(Br)C(C)(C)C)c1ccccc1 (stereo unspecified)
275 °C	CC1(C)CCC2(C(=O)O)CCC3(C)C(=CCC4C5(C)CCC(O)C(C)(C=O)C5CCC43C)C2C1 (stereo unspecified)
80 °C	N#CCc1ccc(OCc2ccccc2)c(OCc2ccccc2)c1
49 to 51 °C	OCc1ccc(-c2ccccn2)cc1
128 °C	O=C(O)COc1ccccc1O
78 °C	Cc1ccc(C)c(CCC(C)(C)C(=O)O)c1
86 to 90 °C	O=C(Nc1ccccc1)C(F)(F)F
66 °C	Nc1ncccc1Br
89 to 90 °C	OCc1cccc2cccc(Br)c12
250 to 260 °C	CC(C)[C@H]1NC(=O)CNC1=O
236 °C	Cc1cc(C(F)(F)F)n2nc(N)c(/N=N/c3cccc4ccccc34)c2n1

Structure (SMILES)	melting point
Cc1cccc(C)c1N(Cn1cccn1)C(=O)CCl	85 °C
CON=C(C(=O)OC)c1ccccc1COc1ccccc1C	102 °C
NNC(N)=S	183 °C
COc1cc2c(c3oc(=O)c4c(c13)CCOC4=O)C1CCOC1O2 (stereo unspecified)	237 to 240 °C
O=P(O)(O)CCP(=O)(O)O	218 °C
O=C1C=CC(=O)c2c(O)cccc21	162 °C
c1ccc2sc(SNC3CCCCC3)nc2c1	98 °C
CC(C)=NN(c1ccccc1)P(=O)(N1CC1)N1CC1	120 °C
OC(Cn1cncn1)(c1ccc(F)cc1)c1ccccc1F (stereo unspecified)	130 °C
CC1(C)CC(=O)C(Cl)C(=O)C1	163 °C
N#CC(OC1OC(COC2OC(CO)C(O)C(O)C2O)C(O)C(O)C1O)c1ccccc1 (stereo unspecified)	224 °C
O=[N+]([O-])C=Cc1c(Cl)cccc1Cl	62 to 66 °C
COC(=O)C(C)N(C(=O)Cc1ccccc1)c1c(C)cccc1C (stereo unspecified)	79 °C
Brc1ccc(Oc2ccc(Br)cc2Br)c(Br)c1	78.5 to 79 °C
